Source: ChEMBL document CHEMBL4811291, “Discovery of macrocyclic HDACs 1, 2, and 3 selective inhibitors for HIV latency reactivation” (Bioorg Med Chem Lett, 2021)
pEC50, pIC50: −log10 of the molar value.

Key:
[1] = system: Human immunodeficiency virus; assay: Reactivation of HIV latency infected in human 2C4 cells in presence of 0.1 % NHS by luciferase reporter gene assay; format: functional, organism-based
Histone deacetylase 2 = Histone deacetylase 2 (Homo sapiens, UniProt Q92769); assay: Inhibition of HDAC2 (unknown origin)
Chain of Histone deacetylase 2 (Q92769 whole entry): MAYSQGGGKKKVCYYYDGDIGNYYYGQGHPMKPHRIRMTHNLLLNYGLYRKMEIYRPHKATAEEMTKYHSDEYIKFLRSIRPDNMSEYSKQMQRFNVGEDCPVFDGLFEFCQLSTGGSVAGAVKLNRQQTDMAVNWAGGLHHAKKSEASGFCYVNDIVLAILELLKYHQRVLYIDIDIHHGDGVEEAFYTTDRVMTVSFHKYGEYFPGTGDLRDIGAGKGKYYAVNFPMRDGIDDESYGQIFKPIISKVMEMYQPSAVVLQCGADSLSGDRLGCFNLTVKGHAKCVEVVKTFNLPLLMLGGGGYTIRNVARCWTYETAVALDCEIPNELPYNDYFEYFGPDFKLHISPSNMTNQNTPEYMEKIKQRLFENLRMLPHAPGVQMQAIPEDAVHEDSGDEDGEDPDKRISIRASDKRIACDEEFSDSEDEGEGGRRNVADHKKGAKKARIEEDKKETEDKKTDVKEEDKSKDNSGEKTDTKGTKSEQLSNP

Histone deacetylase 1 = Histone deacetylase 1 (Homo sapiens, UniProt Q13547); assay: Inhibition of HDAC1 (unknown origin)
Chain of Histone deacetylase 1 (Q13547 whole entry): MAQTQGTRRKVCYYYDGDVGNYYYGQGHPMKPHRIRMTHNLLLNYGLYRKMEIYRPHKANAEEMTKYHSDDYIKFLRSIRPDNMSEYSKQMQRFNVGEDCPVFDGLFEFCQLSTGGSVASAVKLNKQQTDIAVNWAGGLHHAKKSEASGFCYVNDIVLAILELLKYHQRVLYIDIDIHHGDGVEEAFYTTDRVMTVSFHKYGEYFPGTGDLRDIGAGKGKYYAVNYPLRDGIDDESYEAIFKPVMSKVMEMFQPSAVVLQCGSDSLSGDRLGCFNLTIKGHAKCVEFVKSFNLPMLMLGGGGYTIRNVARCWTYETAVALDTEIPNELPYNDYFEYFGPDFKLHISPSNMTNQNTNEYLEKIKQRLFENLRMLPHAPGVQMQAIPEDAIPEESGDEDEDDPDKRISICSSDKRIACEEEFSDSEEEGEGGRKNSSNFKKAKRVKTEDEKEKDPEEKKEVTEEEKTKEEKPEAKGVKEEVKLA

Histone deacetylase 3 = Histone deacetylase 3 (Homo sapiens, UniProt O15379); assay: Inhibition of HDAC3 (unknown origin)
Chain of Histone deacetylase 3 (O15379 whole entry): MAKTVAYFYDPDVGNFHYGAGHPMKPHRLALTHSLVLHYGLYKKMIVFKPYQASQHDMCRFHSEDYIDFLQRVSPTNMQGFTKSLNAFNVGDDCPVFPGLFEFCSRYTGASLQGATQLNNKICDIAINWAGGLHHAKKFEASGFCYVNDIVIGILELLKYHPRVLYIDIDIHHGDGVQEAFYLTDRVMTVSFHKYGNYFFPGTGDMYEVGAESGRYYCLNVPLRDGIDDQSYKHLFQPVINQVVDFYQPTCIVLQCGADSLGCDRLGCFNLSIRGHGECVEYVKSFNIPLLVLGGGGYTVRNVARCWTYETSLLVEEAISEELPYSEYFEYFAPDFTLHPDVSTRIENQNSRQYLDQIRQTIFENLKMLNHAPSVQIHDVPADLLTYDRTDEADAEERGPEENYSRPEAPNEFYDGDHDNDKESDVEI

[2] = system: Human immunodeficiency virus; assay: Reactivation of HIV latency infected in human 2C4 cells in presence of 5 % NHS by luciferase reporter gene assay; format: functional, organism-based
[3] = Oral bioavailability in Wistar Han rat at 10 mg/kg; format: ADME, organism-based; conditions: in vivo
[4] = Cmax in Wistar Han rat at 10 mg/kg, po; format: ADME, organism-based; set-up: route oral, dose 10 mg/kg; conditions: in vivo
[5] = Half life in Wistar Han rat at 2 mg/kg, iv; format: ADME, organism-based; conditions: in vivo
[6] = AUC in Wistar Han rat at 10 mg/kg, po; format: ADME, organism-based; set-up: dose 10 mg/kg; conditions: in vivo
[7] = Tmax in Wistar Han rat at 10 mg/kg, po; format: ADME, organism-based; conditions: in vivo
[8] = Ratio of EC50 for reactivation of HIV latency infected in human 2C4 cells in presence of 5 % NHS by luciferase reporter gene assay to EC50 for reactivation of HIV latency infected in human 2C4 cells in presence of 0.1 % NHS by luciferase reporter gene assay; format: functional, Human immunodeficiency virus
Homo sapiens = organism: Homo sapiens; assay: Selectivity ratio of IC50 for HDAC8 (unknown origin) to IC50 for HDAC6 (unknown origin)
[9] = Clearance in Wistar Han rat at 2 mg/kg, iv; format: ADME, organism-based; conditions: in vivo
Histone deacetylase 8 = target: T1, Histone deacetylase 8 (Homo sapiens, UniProt Q9BY41); assay: Inhibition of HDAC8 (unknown origin)
T1 sequence (Q9BY41 whole entry): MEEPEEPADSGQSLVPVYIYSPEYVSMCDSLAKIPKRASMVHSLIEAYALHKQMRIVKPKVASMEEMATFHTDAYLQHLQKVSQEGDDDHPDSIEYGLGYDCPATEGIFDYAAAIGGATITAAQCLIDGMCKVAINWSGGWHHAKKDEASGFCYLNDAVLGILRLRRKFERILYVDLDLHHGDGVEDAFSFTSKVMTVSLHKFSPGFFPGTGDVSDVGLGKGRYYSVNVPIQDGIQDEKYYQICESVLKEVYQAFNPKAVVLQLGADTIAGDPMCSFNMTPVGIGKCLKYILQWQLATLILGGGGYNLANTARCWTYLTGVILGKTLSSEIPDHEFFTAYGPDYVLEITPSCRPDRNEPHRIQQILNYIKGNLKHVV

[10] = target: T2, Protein deacetylase HDAC6 (Homo sapiens, UniProt Q9UBN7); assay: Inhibition of HDAC6 (unknown origin)
T2 sequence (Q9UBN7 whole entry): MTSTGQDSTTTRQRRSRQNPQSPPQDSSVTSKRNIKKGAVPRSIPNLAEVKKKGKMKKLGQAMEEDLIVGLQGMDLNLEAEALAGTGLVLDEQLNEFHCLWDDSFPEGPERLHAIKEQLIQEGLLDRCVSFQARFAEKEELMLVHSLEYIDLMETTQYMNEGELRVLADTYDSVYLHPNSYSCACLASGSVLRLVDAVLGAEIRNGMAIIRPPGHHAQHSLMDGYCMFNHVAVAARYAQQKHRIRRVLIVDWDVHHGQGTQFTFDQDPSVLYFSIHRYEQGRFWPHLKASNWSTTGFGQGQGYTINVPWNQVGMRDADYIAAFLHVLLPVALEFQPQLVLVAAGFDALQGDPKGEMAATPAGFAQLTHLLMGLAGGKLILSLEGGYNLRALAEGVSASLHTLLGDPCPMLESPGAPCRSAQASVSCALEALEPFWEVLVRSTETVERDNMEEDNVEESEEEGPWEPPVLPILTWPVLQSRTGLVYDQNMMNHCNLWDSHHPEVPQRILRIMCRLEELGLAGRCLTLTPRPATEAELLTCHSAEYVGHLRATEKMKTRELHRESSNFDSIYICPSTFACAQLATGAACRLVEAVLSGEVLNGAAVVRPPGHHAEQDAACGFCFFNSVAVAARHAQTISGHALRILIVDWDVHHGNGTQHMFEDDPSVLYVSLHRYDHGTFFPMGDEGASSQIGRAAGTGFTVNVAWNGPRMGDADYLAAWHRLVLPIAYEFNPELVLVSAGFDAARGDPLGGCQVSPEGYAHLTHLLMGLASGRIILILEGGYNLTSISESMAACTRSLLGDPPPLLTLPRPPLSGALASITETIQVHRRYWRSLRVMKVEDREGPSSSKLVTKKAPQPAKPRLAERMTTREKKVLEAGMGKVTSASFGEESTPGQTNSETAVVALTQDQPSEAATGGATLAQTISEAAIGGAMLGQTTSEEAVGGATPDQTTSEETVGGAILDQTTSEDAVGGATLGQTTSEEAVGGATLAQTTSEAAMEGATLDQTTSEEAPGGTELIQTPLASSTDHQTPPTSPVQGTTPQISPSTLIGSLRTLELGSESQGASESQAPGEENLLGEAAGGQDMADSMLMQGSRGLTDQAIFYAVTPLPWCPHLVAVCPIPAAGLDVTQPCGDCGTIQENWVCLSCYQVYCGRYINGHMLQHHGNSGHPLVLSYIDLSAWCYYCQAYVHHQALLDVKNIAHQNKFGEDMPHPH

[11] = Plasma concentration in Wistar Han rat at 10 mg/kg, po after 24 hrs; format: ADME, organism-based
[12] = Clearance in Wistar Han rat at 0.05 mg/kg, iv; format: ADME, organism-based; conditions: in vivo
[13] = Half life in Wistar Han rat at 0.05 mg/kg, iv; format: ADME, organism-based; conditions: in vivo
[14] = Human immunodeficiency virus 1, 2C4

Row | Structure (SMILES) | pEC50 [1, 14] | pIC50 (Histone deacetylase 2) | pIC50 (Histone deacetylase 1) | pIC50 (Histone deacetylase 3) | pEC50 [2, 14] | pIC50 (Histone deacetylase 8) | pIC50 [10] | also measured
1 | CCC(=O)CCCCC[C@H](NC(=O)[C@H]1CC12CCN(CC)CC2)c1ncc(-c2ccc3c(=O)n(CC)ccc3c2)[nH]1 | 7.28 | > 8.82 | > 8.82 | > 8.82 | 7.25 |  |  | 
2 | CCC(=O)CCCCC[C@H](NC(=O)[C@H]1CC12CCN(CC)CC2)c1[nH]c2nc1C(=O)NCCC/C=C/c1cccc-2c1 | 5.28 |  |  |  | 4.71 |  |  | 
3 | CCC(=O)CCCCC[C@@H]1NC(=O)[C@H]2CC23CCN(CCCCCCCCn2ccc4cc(c(OC)cc4c2=O)-c2cnc1[nH]2)CC3 | 7.96 |  |  |  | 7.92 | < 6.05 |  | bioavailability [3]: 2.9%; Cmax [4]: 13 nM; half-life [5]: 1.4 h; AUC [6]: 0.04 µM·h; Tmax [7]: 3 h; Ratio EC50 [8]: 1.1; Ratio IC50 (Homo sapiens): > 1000; clearance [9]: 96 mL/min/kg
4 | CCC(=O)CCCCC[C@@H]1NC(=O)[C@H]2CC23CCN(CCCCN2C4CCC2c2cc(ccc24)-c2cnc1[nH]2)CC3 (stereo not given in full) | 6.07 | 7.31 |  |  | 6.06 | < 6.05 | < 6.05 | 
5 | CCC(=O)CCCCC[C@H](NC(=O)[C@H]1CC12CCN(CC)CC2)c1[nH]c(-c2ccc(F)cc2)nc1C(N)=O | 6.71 |  |  |  | 6.78 |  |  | 
6 | CCC(=O)CCCCC[C@@H]1NC(=O)[C@H]2CC23CCN(CCCOCCCn2ccc4cc(ccc4c2=O)-c2cnc1[nH]2)CC3 | 5.75 |  |  |  | 5.70 |  | < 6.05 | 
7 | CCC(=O)CCCCC[C@@H]1NC(=O)[C@H]2CC23CCN(CCCCCOc2ccc4cc(ccc4n2)-c2cnc1o2)CC3 | < 4.40 |  |  |  | < 4.40 | < 6.05 | < 6.05 | 
8 | CCC(=O)CCCCC[C@@H]1NC(=O)C2CCN2CCCCCOc2ccccc2-c2cnc1[nH]2 (stereo in doubt; 4) | 5.50 | 6.04 | 6.67 | 7.04 | 5.29 | 4.67 | 5.27 | 
9 | CCC(=O)CCCCC[C@@H]1NC(=O)[C@H]2CC23CCN(CCOCCn2ccc4cc(ccc4c2=O)-c2cnc1[nH]2)CC3 | < 4.40 |  |  |  | < 4.40 | < 6.05 | < 6.05 | bioavailability [3]: 0.15%; Cmax [4]: 62 nM; half-life [5]: 3.9 h; concentration at 24 h [11]: 1 nM; AUC [6]: 0.11 µM·h; Tmax [7]: 0.25 h; clearance [9]: 3.9 mL/min/kg
10 | CCC(=O)CCCCC[C@@H]1NC(=O)C2CCN2CCCCCOc2ccccc2-c2cnc1[nH]2 (stereo in doubt; 3) |  | 5.06 | 5.59 | 6.10 |  |  |  | 
11 | CCC(=O)CCCCC[C@@H]1NC(=O)C2CCN2CCCCCCOc2ccccc2-c2cnc1[nH]2 (stereo in doubt; 6) | 5.80 | 6.18 | 6.66 | 6.98 | 5.52 | 5.07 | 5.26 | 
12 | CCC(=O)CCCCC[C@H](NC(=O)[C@H]1CC12CCN(CC)CC2)c1[nH]c2nc1C(=O)NCCCCCc1cccc-2c1 | < 4.40 | < 6.05 |  |  | 4.92 | < 6.05 | < 6.05 | 
13 | CCC(=O)CCCCC[C@@H]1NC(=O)[C@H]2CC23CCN(CCCCCCCCn2ccc4cc(ccc4c2=O)-c2cnc1[nH]2)CC3 | 7.85 |  |  | 10.22 | 7.80 | < 6.05 | < 6.05 | clearance [12]: 312 mL/min/kg; Ratio EC50 [8]: 1.1; half-life [13]: 2.8 h; Ratio IC50 (Homo sapiens): > 1000
14 | CCC(=O)CCCCC[C@@H]1NC(=O)[C@H]2CC23CCN(CCCOCCn2ccc4cc(ccc4c2=O)-c2cnc1[nH]2)CC3 | < 4.40 |  |  |  | < 4.40 | < 6.05 | < 6.05 | 
15 | CCC(=O)CCCCC[C@H](NC(=O)C1CN(C)C1)c1[nH]c(-c2ccccc2)nc1C(N)=O | 6.53 |  |  |  | 6.57 |  |  | 
16 | CCC(=O)CCCCC[C@@H]1NC(=O)[C@H]2CC23CCN(CCCCN2C4CCC2c2c(cccc24)-c2cnc1[nH]2)CC3 (stereo not given in full) | 5.20 | 7.62 |  |  | 5.04 | < 6.05 | < 6.05 | 
17 | CCC(=O)CCCCC[C@@H]1NC(=O)[C@H]2CC23CCN(C/C=C/CN2C4CCC2c2cc(ccc24)-c2cnc1[nH]2)CC3 (stereo not given in full) | 7.14 | 9.07 |  |  | 7.12 | < 6.05 | < 6.05 | 
18 | CCC(=O)CCCCC[C@@H]1NC(=O)[C@H]2CCCCN2C(=O)[C@H]([C@@H](C)CC)NC(=O)[C@H](Cc2cn(OC)c3ccccc23)NC1=O |  |  |  |  |  |  |  | pEC50 ([1]; 2c4): 6.90; pEC50 ([2]; 2c4): 6.23
19 | CCC(=O)CCCCC[C@H](NC(=O)C1CN(C)C1)c1ncc(-c2ccccc2)[nH]1 | 5.61 | 6.60 | 7.43 | 7.92 | 5.63 | 4.83 | 5.24 | 
20 | CCC(=O)CCCCC[C@H](NC(=O)C1CN(C)C1)c1ncc(-c2cc3ccccc3nc2OC)[nH]1 |  |  |  |  |  |  | 6.17 | 
21 | CCC(=O)CCCCC[C@@H]1NC(=O)C2CCN2CCCCCCc2ccccc2-c2cnc1[nH]2 (stereo in doubt; 7) |  | 5.23 | 5.53 | 5.91 |  |  | 5.01 | 
22 | CCC(=O)CCCCC[C@@H]1NC(=O)CN(C)CCCCOCCCCn2ccc3cc(ccc3c2=O)-c2cnc1[nH]2 | 5.60 |  |  |  | 5.45 | < 6.05 | < 6.05 | 
23 | CCC(=O)CCCCC[C@@H]1NC(=O)C2CCN2CCCCCCc2ccccc2-c2cnc1[nH]2 (stereo in doubt; 8) |  | 5.94 | 6.45 | 6.73 |  |  | 4.76 | 
24 | CCC(=O)CCCCC[C@@H]1NC(=O)[C@H]2CC23CCN(CCCCCn2c(=O)ccc4cc(ccc42)-c2cnc1o2)CC3 | 5.29 | 6.59 | 7.80 | 7.25 | 5.32 | < 6.05 | 6.07 | 
25 | CCC(=O)CCCCC[C@H](NC(=O)[C@H]1CC12CCN(C)CC2)c1ncc(-c2ccc3c(c2)C2CCC3C2)[nH]1 (stereo not given in full) | 6.45 | 8.43 |  |  | 6.42 |  |  | 
26 | CCC(=O)CCCCC[C@H](NC(=O)[C@H]1CC12CCN(CC)CC2)c1[nH]c2nc1C(=O)NCCC/C=C\c1cccc-2c1 | 5.83 |  |  |  | 5.54 | 7.05 | < 6.05 | 
27 | CCC(=O)CCCCC[C@H](NC(=O)[C@H]1CC12CCN(C)CC2)c1ncc(-c2ccc3c(=O)n(C)ccc3c2)[nH]1 |  |  |  |  | 6.89 |  |  | 
28 | CCC(=O)CCCCC[C@@H]1NC(=O)C2CCN2CCCCCCOc2ccccc2-c2cnc1[nH]2 (stereo in doubt; 5) |  | 5.55 | 6.17 | 6.62 |  |  |  | 
